From patent US9765035B2 (priority 2013, dated 2017)
Where two headings read alike, the source gives them in different places.

What was measured:
human PRMT6 = human PRMT6 (Homo sapiens, UniProt Q96LA8); assay: biochemical
Excerpt: General Materials. S-adenosylmethionine (SAM), S-adenosylhomocysteine (SAH), bicine, Tween20, dimethylsulfoxide (DMSO), bovine skin gelatin (BSG), sodium butyrate and Tris(2-carboxyethyl)phosphine hydrochloride solution (TCEP) were purchased from Sigma-Aldrich at the highest level of purity possible. ^3H-SAM was purchase from American Radiolabeled Chemicals with a specific activity of 80 Ci/mmol. 384-well streptavidin Flashplates were purchased from PerkinElmer.
Substrates. Peptide representative of human histone H4 residues 36-50 was synthesized with an N-terminal linker-affinity tag motif and a C-terminal amide cap by 21st Century Biochemicals. The peptide was purified by high-performance liquid chromatography (HPLC) to greater than 95% purity and confirmed by liquid chromatography mass spectrometry (LC-MS). The sequence was Biot-Ahx-[…]-amide and contained a monomethylated lysine at position 44 (SEQ ID NO.:5).
Molecular Biology: Full-length human PRMT6 (NM_018137.2) transcript clone was amplified from an HEK 293 cDNA library, incorporating a flanking 5′ sequence encoding a FLAG tag ([…]) (SEQ ID NO.:6) fused directly to Ser 2 of PRMT6 and a 3′ sequence encoding a hexa His sequence (HHHHHH) (SEQ ID NO.: 17) fused directly to Asp 375. The amplified gene was subcloned into pFastBacMam (Viva Biotech).
Protein Expression. Recombinant baculovirus were generated according to Bac-to-Bac kit instructions (Life Technologies). […] Infections were carried out at 37° C. for 48 hours, harvested by centrifugation, and stored at −80° C. for purification.
Protein Purification. […] Column was washed with 20 mM imidazole in the same buffer and Flag-PRMT6-His was eluted with 150 mM imidazole. Pooled fractions were dialysed against buffer Ni-A and further purified by anti-flag M2 affinity chromatography. Flag-PRMT6-His was eluted with 200 ug/ml FLAG peptide in the same buffer. Pooled fractions were dialysed in 20 mM Tris, 150 mM NaCl, 10% glycerol and 5 mM β-mercaptoethanol, pH 7.8. The purity of recovered protein was 95%.
General Procedure for PRMT6 Enzyme Assays on Peptide Substrates. The assays were all performed in a buffer consisting of 20 mM Bicine (pH=7.6), 1 mM TCEP, 0.005% BSG, and 0.002% Tween 20, prepared on the day of use. Compounds in 100% DMSO (1 ul) were spotted into a polypropylene 384-well V-bottom plates (Greiner) using a Platemate Plus outfitted with a 384-channel head (Thermo Scientific). DMSO (1 ul) was added to Columns 11, 12, 23, 24, rows A-H for the maximum signal control and 1 ul of SAH, a known product and inhibitor of PRMT6, was added to columns 11, 12, 23, 24, rows I-P for the minimum signal control. A cocktail (40 ul) containing the PRMT6 enzyme was added by Multidrop Combi (Thermo-Fisher). The compounds were allowed to incubate with PRMT6 for 30 min at room temperature, then a cocktail (10 ul) containing SAM and peptide was added to initiate the reaction (final volume=51 ul). The final concentrations of the components were as follows: PRMT6 was 1 nM, ^3H-SAM was 200 nM, non-radiolabeled SAM was 250 nM, peptide was 75 nM, SAH in the minimum signal control wells was 1 mM, and the DMSO concentration was 2%. The assays were stopped by the addition of non-radiolabeled SAM (10 ul) to a final concentration of 400 uM, which dilutes the ^3H-SAM to a level where its incorporation into the peptide substrate is no longer detectable. 50 ul of the reaction in the 384-well polypropylene plate was then transferred to a 384-well Flashplate and the biotinylated peptides were allowed to bind to the streptavidin surface for at least 1 hour before being washed once with 0.1% Tween20 in a Biotek EL×405 plate washer. The plates were then read in a PerkinElmer TopCount plate reader to measure the quantity of ^3H-labeled peptide bound to the Flashplate surface, measured as disintegrations per minute (dpm) or alternatively, referred to as counts per minute (cpm). […]

[1] = tested on: RKO cells, mono-methyl arginine; assay: RKO Methylation Assay (In Cell Western for mono-methyl arginine); assay type: cell-based; conditions: Homo sapiens, 72 hours
Excerpt: RKO adherent cells were purchased from ATCC (American Type Culture Collection), Manassas, Va., USA. DMEM/Glutamax medium, penicillin-streptomycin, heat inactivated fetal bovine serum, 0.05% trypsin and D-PBS were purchased from Life Technologies, Grand Island, N.Y., USA. Odyssey blocking buffer, 800CW goat anti-rabbit IgG (H+L) antibody, and Licor Odyssey infrared scanner were purchased from Licor Biosciences, Lincoln, Nebr., USA. Mono-methyl arginine antibody was purchased from Cell Signaling Technology, Danvers, Mass., USA. Methanol was purchased from VWR, Franklin, Mass., USA. 10% Tween 20 was purchased from KPL, Inc., Gaithersburg, Md., USA. DRAQ5 was purchased from Biostatus Limited, Leicestershire, UK.
RKO adherent cells were maintained in growth medium (DMEM/Glutamax medium supplemented with 10% v/v heat inactivated fetal bovine serum and 100 units/mL penicillin-streptomycin) and cultured at 37° C. under 5% CO2.
Cell Treatment, in Cell Western (ICW) for Detection of Mono-Methyl Arginine and DNA Content. […] Compound (100 nL) from a 96-well source plate was added directly to 384 well cell plate. Plates were incubated at 37° C., 5% CO2 for 72 hours. After three days of incubation, plates were brought to room temperature outside of the incubator for ten minutes and blotted on paper towels to remove cell media. 50 μL of ice cold 100% methanol was added directly to each well and incubated for 30 min at room temperature. After 30 min, plates were transferred to a Biotek EL406 plate washer and washed 2 times with 100 μL per well of wash buffer (1×PBS). Next 60 μL per well of Odyssey blocking buffer (Odyssey Buffer with 0.1% Tween 20 (v/v)) were added to each plate and incubated 1 hour at room temperature. Blocking buffer was removed and 20 μL per well of primary antibody was added (mono-methyl arginine diluted 1:200 in Odyssey buffer with 0.1% Tween 20 (v/v)) and plates were incubated overnight (16 hours) at 4° C. Plates were washed 5 times with 100 μL per well of wash buffer. […] The plates were washed 5 times with 100 μL per well wash buffer then 2 times with 100 μL per well of water. Plates were allowed to dry at room temperature then imaged on the Licor Odyssey machine which measures integrated intensity at 700 nm and 800 nm wavelengths. Both 700 and 800 channels were scanned.
Calculations: First, the ratio for each well was determined by:
Each plate included fourteen control wells of DMSO only treatment (minimum activation) as well as fourteen control wells for maximum activation treated with 20 μM of a reference compound. The average of the ratio values for each control type was calculated and used to determine the percent activation for each test well in the plate. Reference compound was serially diluted three-fold in DMSO for a total of nine test concentrations, beginning at 20 μM. Percent activation was determined and EC30 curves were generated using triplicate wells per concentration of compound.

Sequence of human PRMT6 (Q96LA8 with tags, fused parts or gaps): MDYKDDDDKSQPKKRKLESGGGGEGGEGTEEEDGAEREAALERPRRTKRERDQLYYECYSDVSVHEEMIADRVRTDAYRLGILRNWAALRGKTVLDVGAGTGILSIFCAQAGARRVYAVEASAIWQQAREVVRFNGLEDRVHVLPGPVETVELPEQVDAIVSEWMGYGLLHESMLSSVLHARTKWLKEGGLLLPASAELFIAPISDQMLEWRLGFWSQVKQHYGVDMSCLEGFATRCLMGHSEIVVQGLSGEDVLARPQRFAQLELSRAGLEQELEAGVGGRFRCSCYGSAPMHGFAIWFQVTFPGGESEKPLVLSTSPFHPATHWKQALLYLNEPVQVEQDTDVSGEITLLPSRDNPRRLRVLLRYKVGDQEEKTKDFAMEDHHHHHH

Compound: CNCCN(C)Cc1n[nH]c2ccc(OC(C)C(C)C)cc12 (stereo not shown) [Compound 4]
- IC50 (human PRMT6; biochemical evaluation, peptide substrate, read-out: PRMT6 IC50): < 100 nM
- IC50 (human PRMT6; single experiment or average of multiple experiments, read-out: PRMT6 biochemical evaluation (numerical)): 36.4 nM
- EC30 ([1]; In Cell Western EC30, RKO cells, single experiment or average of multiple experiments, read-out: RGG ICW): 1680 nM
- EC30 ([1]; In Cell Western, RKO cells, read-out: RGG ICW EC30): < 3000 nM
